Laboratory results reported in patent publication US12227500B2, “Substituted pyrrolo[2,3-b]pyridines for suppressing toxic endoplasmic reticulum stress” (THE TRUSTEES OF COLUMBIA UNIVERSITY IN THE CITY OF NEW YORK, priority 2018, dated 2025).
Where two headings read alike, the source gives them in different places.

Columns and labels:
Format in all cases: biochemical
[1] = target: T1, panel of 60 human kinases (Homo sapiens, UniProt O95819); assay: Radiolabeled ATP kinase assay, panel of 60 kinases (Table S5); settings: HGK/MAP4K4; 0.1 μM; 10 μM ATP; read-out: % Enzyme Activity (relative to DSMO controls)
T1 construct: purchased Reaction Biology Corp
T1 sequence (O95819 whole entry): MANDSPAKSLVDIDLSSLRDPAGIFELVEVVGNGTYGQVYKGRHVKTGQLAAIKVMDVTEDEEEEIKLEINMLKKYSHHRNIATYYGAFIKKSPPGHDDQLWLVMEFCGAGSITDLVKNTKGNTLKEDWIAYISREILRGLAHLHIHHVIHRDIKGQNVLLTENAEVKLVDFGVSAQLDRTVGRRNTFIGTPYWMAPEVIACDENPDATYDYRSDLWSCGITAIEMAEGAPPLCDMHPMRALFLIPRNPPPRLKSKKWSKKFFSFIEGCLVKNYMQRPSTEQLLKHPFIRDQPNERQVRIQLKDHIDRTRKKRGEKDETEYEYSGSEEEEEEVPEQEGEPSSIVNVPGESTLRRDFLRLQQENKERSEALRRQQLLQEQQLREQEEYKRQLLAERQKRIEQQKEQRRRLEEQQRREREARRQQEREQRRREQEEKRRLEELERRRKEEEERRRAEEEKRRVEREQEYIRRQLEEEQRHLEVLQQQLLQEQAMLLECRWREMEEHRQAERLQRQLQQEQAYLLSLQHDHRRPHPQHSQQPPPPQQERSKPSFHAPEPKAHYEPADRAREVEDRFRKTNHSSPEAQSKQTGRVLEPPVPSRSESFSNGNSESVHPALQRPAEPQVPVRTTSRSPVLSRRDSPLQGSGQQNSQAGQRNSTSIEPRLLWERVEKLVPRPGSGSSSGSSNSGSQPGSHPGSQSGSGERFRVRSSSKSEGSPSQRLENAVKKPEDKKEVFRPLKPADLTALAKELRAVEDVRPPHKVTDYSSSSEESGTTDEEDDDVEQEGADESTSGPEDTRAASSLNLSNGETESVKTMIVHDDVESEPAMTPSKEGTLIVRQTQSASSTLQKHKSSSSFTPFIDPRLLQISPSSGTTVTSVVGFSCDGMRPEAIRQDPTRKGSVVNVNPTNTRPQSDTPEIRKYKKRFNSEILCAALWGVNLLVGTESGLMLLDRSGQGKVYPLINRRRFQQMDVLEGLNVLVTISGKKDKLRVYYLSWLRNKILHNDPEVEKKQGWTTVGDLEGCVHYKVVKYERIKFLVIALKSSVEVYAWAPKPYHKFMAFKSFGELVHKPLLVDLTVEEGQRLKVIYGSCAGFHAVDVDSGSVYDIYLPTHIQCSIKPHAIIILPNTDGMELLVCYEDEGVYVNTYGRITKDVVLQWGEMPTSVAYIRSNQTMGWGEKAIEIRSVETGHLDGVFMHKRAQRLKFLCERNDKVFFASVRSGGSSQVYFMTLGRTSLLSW
Procedure: (§1) To better understand the biologically relevant targets of compound 1 and its analogs, a second round of cell-free kinase assays was performed. In this expanded assay, we selected ten analogs ranging from moderately to very strongly protective in the CPA assay. These analogs were evaluated for their ability to inhibit a selection of 60 kinases at 0.1 μM and 0.5 μM. […] RNAseq data were used to confirm the expression of each kinase in ES MNs (see Example 12).
(§2) RNAseq data were used to confirm the expression of each kinase in ES motor neurons (see Example 12).

[2] = target: T2, panel of 60 human kinases (Homo sapiens, UniProt P08581); assay: as above; settings: c-MET; 0.1 μM; 10 μM ATP; read-out: % Enzyme Activity (relative to DSMO controls)
T2 construct: purchased Reaction Biology Corp
Procedure: as §1, §2

[3] = target: T3, panel of 60 human kinases (Homo sapiens, UniProt P11802); assay: as above; settings: 0.1 μM, 10 μM ATP, read-out: % Enzyme Activity (relative to DSMO controls)
T3 construct: purchased Reaction Biology Corp
Procedure: as §1, §2

[4] = target: T4, panel of 60 human kinases (Homo sapiens, UniProt P49841); assay: as above; settings: GSK3b; 0.1 μM; 10 μM ATP; read-out: % Enzyme Activity (relative to DSMO controls)
T4 construct: purchased Reaction Biology Corp
T4 sequence (P49841 whole entry): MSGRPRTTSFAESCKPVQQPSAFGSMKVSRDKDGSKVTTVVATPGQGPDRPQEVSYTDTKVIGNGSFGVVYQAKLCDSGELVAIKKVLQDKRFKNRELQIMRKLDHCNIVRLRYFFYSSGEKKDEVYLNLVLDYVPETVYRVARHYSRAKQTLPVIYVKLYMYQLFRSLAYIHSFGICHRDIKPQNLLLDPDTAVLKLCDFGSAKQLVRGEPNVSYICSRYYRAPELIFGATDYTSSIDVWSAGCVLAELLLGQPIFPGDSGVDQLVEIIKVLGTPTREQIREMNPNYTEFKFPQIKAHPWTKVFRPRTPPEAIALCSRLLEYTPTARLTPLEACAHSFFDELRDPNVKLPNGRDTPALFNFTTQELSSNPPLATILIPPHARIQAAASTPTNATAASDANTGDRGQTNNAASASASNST
Procedure: as §1, §2

[5] = target: T5, panel of 60 human kinases (Homo sapiens, UniProt P50750); assay: as above; settings: 0.1 μM, 10 μM ATP, read-out: % Enzyme Activity (relative to DSMO controls)
T5 construct: purchased Reaction Biology Corp
Procedure: as §1, §2

[6] = target: T6, panel of 60 human kinases (Homo sapiens, UniProt Q00526); assay: as above; settings: CDK3/cyclin E; 0.1 μM; 10 μM ATP; read-out: % Enzyme Activity (relative to DSMO controls)
T6 construct: purchased Reaction Biology Corp
T6 sequence (Q00526 whole entry): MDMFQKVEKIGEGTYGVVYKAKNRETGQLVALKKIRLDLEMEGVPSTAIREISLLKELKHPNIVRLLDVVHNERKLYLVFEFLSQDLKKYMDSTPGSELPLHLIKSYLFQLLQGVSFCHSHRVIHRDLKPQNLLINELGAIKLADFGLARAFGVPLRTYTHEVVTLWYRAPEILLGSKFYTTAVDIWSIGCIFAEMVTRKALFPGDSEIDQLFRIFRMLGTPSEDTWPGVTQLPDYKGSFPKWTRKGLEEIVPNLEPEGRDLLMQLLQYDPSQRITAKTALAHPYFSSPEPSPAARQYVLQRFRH
Procedure: as §1, §2

[7] = target: T7, panel of 60 human kinases (Homo sapiens, UniProt Q00536); assay: as above; settings: CDK16/cyclin Y (PCTAIRE); 0.1 μM; 10 μM ATP; read-out: % Enzyme Activity (relative to DSMO controls)
T7 construct: purchased Reaction Biology Corp
T7 sequence (Q00536 whole entry): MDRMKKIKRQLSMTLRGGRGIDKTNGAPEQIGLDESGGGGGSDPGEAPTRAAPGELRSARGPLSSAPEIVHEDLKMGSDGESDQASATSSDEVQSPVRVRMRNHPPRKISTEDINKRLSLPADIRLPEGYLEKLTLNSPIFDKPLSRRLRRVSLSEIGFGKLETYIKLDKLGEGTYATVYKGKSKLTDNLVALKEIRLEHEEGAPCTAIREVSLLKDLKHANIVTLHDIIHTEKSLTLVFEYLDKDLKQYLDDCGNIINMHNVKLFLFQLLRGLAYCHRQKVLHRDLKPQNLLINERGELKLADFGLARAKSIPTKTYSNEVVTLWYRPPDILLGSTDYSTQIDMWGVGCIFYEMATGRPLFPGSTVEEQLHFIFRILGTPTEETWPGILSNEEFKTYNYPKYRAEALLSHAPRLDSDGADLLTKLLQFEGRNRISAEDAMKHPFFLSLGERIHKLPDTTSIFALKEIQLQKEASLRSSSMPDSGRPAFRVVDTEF
Procedure: as §1, §2

[8] = target: T8, panel of 60 human kinases (Homo sapiens, UniProt Q00537); assay: as above; settings: CDK17/cyclin Y (PCTK2); 0.1 μM; 10 μM ATP; read-out: % Enzyme Activity (relative to DSMO controls)
T8 construct: purchased Reaction Biology Corp
T8 sequence (Q00537 whole entry): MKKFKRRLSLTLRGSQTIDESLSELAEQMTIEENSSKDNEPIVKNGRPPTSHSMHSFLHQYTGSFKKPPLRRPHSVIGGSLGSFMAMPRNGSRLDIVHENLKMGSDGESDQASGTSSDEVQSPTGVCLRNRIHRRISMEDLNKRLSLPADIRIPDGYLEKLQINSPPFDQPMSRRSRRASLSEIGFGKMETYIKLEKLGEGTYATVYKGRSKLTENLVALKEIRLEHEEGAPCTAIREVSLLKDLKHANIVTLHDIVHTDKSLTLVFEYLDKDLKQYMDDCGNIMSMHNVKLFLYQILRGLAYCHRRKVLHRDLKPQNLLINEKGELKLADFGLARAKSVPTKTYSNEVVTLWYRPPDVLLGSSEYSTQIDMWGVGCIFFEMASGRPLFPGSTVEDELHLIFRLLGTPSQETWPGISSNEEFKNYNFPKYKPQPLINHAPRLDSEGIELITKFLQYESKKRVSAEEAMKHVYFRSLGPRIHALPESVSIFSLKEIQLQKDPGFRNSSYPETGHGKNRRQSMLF
Procedure: as §1, §2

[9] = target: T9, panel of 60 human kinases (Homo sapiens, UniProt Q12851); assay: as above; settings: GCK/MAP4K1; 0.1 μM; 10 μM ATP; read-out: % Enzyme Activity (relative to DSMO controls)
T9 construct: purchased Reaction Biology Corp
T9 sequence (Q12851 1-820): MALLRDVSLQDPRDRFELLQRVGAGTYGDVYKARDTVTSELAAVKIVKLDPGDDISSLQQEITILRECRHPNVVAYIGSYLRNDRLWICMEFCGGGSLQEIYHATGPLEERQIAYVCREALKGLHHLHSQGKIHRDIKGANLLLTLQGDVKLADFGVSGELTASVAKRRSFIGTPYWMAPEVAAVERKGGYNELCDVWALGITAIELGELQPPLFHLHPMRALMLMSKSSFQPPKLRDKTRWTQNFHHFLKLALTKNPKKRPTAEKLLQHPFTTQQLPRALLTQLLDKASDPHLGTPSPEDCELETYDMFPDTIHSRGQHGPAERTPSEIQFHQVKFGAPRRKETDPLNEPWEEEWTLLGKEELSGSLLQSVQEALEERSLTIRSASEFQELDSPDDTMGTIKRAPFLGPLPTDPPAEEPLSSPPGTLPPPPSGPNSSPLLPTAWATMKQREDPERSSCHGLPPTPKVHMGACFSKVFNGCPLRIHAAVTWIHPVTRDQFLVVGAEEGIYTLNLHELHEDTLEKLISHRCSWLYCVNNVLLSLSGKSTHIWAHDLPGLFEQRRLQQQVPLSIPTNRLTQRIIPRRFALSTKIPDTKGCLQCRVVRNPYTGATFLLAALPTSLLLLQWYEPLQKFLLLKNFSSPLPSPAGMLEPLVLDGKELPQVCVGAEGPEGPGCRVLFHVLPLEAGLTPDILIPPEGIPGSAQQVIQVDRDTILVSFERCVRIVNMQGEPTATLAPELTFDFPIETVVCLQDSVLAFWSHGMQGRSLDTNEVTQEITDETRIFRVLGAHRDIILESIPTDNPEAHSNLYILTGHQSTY
Procedure: as §1, §2

[10] = target: T10, panel of 60 human kinases (Homo sapiens, UniProt Q15759); assay: as above; settings: P38b/MAPK11; 0.1 μM; 10 μM ATP; read-out: % Enzyme Activity (relative to DSMO controls)
T10 construct: purchased Reaction Biology Corp
T10 sequence (Q15759 whole entry): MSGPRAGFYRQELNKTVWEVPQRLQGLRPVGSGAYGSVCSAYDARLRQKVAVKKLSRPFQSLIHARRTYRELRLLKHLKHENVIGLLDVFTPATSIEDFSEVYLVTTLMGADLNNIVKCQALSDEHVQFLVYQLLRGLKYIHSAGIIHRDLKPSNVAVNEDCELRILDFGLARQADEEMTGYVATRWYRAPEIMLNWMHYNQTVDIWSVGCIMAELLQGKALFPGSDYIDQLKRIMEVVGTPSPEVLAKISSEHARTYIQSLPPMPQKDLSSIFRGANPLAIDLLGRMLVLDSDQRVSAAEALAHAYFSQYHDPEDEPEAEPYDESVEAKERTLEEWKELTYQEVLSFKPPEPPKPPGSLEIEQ
Procedure: as §1, §2

[11] = target: T11, panel of 60 human kinases (Homo sapiens, UniProt Q92918); assay: as above; settings: HPK1/MAP4K1; 0.1 μM; 10 μM ATP; read-out: % Enzyme Activity (relative to DSMO controls)
T11 construct: purchased Reaction Biology Corp
Procedure: as §1, §2

[12] = target: T12, panel of 60 human kinases (Homo sapiens, UniProt Q9HAZ1); assay: as above; settings: CLK4; 0.1 μM; 10 μM ATP; read-out: % Enzyme Activity (relative to DSMO controls)
T12 construct: purchased Reaction Biology Corp
Procedure: as §1, §2

[13] = target: T13, panel of 60 human kinases (Homo sapiens, UniProt Q9UM73); assay: as above; settings: ALK; 0.1 μM; 10 μM ATP; read-out: % Enzyme Activity (relative to DSMO controls)
T13 construct: purchased Reaction Biology Corp
T13 sequence (Q9UM73 19-1620): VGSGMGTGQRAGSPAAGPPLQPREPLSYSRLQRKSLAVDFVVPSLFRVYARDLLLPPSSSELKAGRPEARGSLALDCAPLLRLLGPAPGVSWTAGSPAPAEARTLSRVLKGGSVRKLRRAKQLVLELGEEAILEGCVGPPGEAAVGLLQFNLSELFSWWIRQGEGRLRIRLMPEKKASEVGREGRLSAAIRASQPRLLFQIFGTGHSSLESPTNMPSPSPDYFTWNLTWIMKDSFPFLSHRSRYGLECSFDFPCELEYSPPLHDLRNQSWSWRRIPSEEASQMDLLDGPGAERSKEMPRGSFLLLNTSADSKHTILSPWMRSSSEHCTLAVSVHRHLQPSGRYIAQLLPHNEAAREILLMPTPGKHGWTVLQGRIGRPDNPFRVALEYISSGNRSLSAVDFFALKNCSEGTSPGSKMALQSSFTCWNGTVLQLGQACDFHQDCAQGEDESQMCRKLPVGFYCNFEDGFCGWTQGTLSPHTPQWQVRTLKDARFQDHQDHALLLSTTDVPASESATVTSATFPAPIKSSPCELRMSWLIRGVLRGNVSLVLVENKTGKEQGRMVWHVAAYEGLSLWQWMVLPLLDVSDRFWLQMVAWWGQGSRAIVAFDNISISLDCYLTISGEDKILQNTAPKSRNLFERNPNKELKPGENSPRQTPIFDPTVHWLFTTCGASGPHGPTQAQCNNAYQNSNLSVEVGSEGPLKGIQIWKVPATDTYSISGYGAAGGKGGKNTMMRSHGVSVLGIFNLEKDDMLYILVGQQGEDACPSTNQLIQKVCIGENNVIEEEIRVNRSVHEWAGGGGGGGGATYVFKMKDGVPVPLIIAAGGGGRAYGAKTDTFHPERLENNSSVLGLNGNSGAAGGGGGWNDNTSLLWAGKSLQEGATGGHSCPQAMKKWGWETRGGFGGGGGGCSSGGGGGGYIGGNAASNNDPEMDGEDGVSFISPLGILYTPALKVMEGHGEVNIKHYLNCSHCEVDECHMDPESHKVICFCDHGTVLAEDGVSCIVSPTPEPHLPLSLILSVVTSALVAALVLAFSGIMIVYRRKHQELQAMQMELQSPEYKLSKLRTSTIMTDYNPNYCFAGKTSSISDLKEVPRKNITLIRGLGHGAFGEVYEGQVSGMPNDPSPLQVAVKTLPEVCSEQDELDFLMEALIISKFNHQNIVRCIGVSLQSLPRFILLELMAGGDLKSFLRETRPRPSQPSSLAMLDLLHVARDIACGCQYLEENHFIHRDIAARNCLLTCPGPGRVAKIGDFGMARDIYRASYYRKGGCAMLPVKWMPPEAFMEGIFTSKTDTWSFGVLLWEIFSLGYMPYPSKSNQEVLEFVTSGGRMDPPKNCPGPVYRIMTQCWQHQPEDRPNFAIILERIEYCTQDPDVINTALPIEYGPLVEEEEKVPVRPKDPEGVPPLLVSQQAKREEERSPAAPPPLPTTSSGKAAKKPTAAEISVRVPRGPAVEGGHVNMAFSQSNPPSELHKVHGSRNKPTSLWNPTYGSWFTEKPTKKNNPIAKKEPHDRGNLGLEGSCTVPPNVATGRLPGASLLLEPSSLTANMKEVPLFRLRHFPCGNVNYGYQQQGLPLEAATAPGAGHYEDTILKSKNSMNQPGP
Procedure: as §1, §2

[14] = target: T14, panel of 60 human kinases (Homo sapiens, UniProt Q9Y4K4); assay: as above; settings: KHS/MAPK4K5; 0.1 μM; 10 μM ATP; read-out: % Enzyme Activity (relative to DSMO controls)
T14 construct: purchased Reaction Biology Corp
Procedure: as §1, §2

HGK/MAP4K4 = HGK/MAP4K4 (Homo sapiens, UniProt O95819); assay: Radiolabeled ATP kinase assay (Reaction Biology Corp.), HGK; design: purchased Reaction Biology Corp; settings: 10 μM ATP, read-out: % Enzyme Activity (relative to DMSO controls), HGK/MAP4K4, Data 1; for remaining activity at 0.025 µM: [Cmpd] 0.025 μM; for remaining activity at 0.1 µM: [Cmpd] 0.1 μM
Chain of HGK/MAP4K4 (O95819 whole entry): as the sequence (O95819 whole entry) above
Procedure: Meanwhile, the same analogs were analyzed in a radiolabeled ATP assay (10 μM ATP; Reaction Biology Corp.) to compare the extent to which they could inhibit the activity of HGK, MLK1, or MLK3 in a cell-free environment (Table S3 and S4).

Structure (SMILES)	remaining activity at 0.1 µM [1] [%]	remaining activity at 0.1 µM [2] [%]	remaining activity at 0.1 µM ([3]; CDK4/cyclin D1) [%]	remaining activity at 0.1 µM ([3]; CDK4/cyclin D3) [%]	remaining activity at 0.1 µM [4] [%]	remaining activity at 0.1 µM ([5]; CDK9/cyclin K) [%]	remaining activity at 0.1 µM ([5]; CDK9/cyclin T1) [%]	remaining activity at 0.1 µM ([5]; CDK9/cyclin T2) [%]	remaining activity at 0.1 µM [6] [%]	remaining activity at 0.1 µM [7] [%]	remaining activity at 0.1 µM [8] [%]	remaining activity at 0.1 µM [9] [%]	remaining activity at 0.1 µM [10] [%]	remaining activity at 0.1 µM [11] [%]	remaining activity at 0.1 µM [12] [%]	remaining activity at 0.1 µM [13] [%]	remaining activity at 0.1 µM [14] [%]	remaining activity at 0.025 µM (HGK/MAP4K4) [%]	remaining activity at 0.1 µM (HGK/MAP4K4) [%]
CN1CCN(Cc2ccc(-c3cnc4[nH]cc(-c5ccc6[nH]ccc6c5)c4c3)cc2)CC1 [Compound 1, 3-(1H-Indol-5-yl)-5-(4-((4-methylpiperazin-1-yl)methyl)phenyl)-1H-pyrrolo[2,3-b]pyridine, reference compound]	1.96	55.9	51	49.1	100	102	96.6	98.1	89.1	94.9	66.1	27.5	104	24	59.2	25.4	11	18.5	5.23
CN1CCN(Cc2ccc(-c3cnc4[nH]cc(-c5ccc6c(c5)OCCO6)c4c3)cc2)CC1 [Compound 7d, 3-(2,3-Dihydrobenzo[b][1,4]dioxin-6-yl)-5-(4-((4-methylpiperazin-1-yl)methyl)phenyl)-1H-pyrrolo[2,3-b]pyridine]	2.05	110	19.4	26.7	30.9	95.8	85.5	93.7	76.7	58	41.1	13.1	101	11.3	21.3	73.8	4.17	19.6	4.25
CN1CCN(Cc2ccc(-c3cnc4[nH]cc(-c5ccccc5Cl)c4c3)cc2)CC1 [Compound 7as, 3-(2-Chlorophenyl)-5-(4-((4-methylpiperazin-1-yl)methyl)phenyl)-1H-pyrrolo[2,3-b]pyridine]	-0.5	84.1	31.9	39.7	98.9	96.6	82.3	74.2	85.5	75.2	44.1	8.85	99.5	19.5	65.7	70.5	0.89	17.6	3.61
